One experiment concerns the target T1, HDAC1 enzyme (Homo sapiens, UniProt Q13547).
T1 construct: prepared by transducing full length HDAC1 and HDAC6 genes into Sf-9 insect cells; GST; purchased SignalChem; host or cells: Sf-9 insect cells
In words: HDAC1 enzyme inhibitory assay (HDAC-Glo I/II Assay kit). The note with it: 1 μM test compound; for inhibition at 1 µM: read-out: HDAC1 inhibitory rate (%) (1 μM). The class given is biochemical. The protocol:
HDAC1 enzyme and HDAC6 enzyme each prepared by transducing full length HDAC1 and HDAC6 genes into Sf-9 insect cells and purifying by GST affinity column were purchased from SignalChem. Using these enzymes, HDAC1 and/or HDAC6 enzyme inhibitory activities of the compound of the present invention were evaluated. Enzymes were used after preserved at −70° C. HDAC1 or HDAC6 enzyme inhibitory activity of the compound of the present invention was measured using HDAC-Glo™ I/II Assay kit (Promega) according to the following experimental method. The test compound diluted with assay buffer (24 mM Tris-HCl (pH 7.5), 1 mM MgCl2, 0.35 mM KCl, 135 mM NaCl, 0.6 mM Glutathione, 0.01% Tween-20) was added to a 384-well plate by each 2 μL. Then, HDAC1 or HDAC6 enzyme solution diluted with assay buffer was added thereto by each 4 μL, and the plate was incubated at room temperature for 60 min. After incubated, HDAC substrate-Developer solution prepared according to Promega protocol attached to the assay kit was added to the 384-well plate by each 2 μL, and the enzyme reaction was started. After reacting at room temperature for 20 min, luminescence level was measured using plate reader Envision (PerkinElmer). The inhibitory activity of each compound was calculated as a relative activity value when luminescence level in wells without enzyme is considered as 100% inhibition.

Another experiment has as its target T2, HDAC6 enzyme (Homo sapiens, UniProt Q9UBN7).
T2 construct: prepared by transducing full length HDAC1 and HDAC6 genes into Sf-9 insect cells; GST; purchased SignalChem; host or cells: Sf-9 insect cells
T2 sequence (Q9UBN7 1-1215): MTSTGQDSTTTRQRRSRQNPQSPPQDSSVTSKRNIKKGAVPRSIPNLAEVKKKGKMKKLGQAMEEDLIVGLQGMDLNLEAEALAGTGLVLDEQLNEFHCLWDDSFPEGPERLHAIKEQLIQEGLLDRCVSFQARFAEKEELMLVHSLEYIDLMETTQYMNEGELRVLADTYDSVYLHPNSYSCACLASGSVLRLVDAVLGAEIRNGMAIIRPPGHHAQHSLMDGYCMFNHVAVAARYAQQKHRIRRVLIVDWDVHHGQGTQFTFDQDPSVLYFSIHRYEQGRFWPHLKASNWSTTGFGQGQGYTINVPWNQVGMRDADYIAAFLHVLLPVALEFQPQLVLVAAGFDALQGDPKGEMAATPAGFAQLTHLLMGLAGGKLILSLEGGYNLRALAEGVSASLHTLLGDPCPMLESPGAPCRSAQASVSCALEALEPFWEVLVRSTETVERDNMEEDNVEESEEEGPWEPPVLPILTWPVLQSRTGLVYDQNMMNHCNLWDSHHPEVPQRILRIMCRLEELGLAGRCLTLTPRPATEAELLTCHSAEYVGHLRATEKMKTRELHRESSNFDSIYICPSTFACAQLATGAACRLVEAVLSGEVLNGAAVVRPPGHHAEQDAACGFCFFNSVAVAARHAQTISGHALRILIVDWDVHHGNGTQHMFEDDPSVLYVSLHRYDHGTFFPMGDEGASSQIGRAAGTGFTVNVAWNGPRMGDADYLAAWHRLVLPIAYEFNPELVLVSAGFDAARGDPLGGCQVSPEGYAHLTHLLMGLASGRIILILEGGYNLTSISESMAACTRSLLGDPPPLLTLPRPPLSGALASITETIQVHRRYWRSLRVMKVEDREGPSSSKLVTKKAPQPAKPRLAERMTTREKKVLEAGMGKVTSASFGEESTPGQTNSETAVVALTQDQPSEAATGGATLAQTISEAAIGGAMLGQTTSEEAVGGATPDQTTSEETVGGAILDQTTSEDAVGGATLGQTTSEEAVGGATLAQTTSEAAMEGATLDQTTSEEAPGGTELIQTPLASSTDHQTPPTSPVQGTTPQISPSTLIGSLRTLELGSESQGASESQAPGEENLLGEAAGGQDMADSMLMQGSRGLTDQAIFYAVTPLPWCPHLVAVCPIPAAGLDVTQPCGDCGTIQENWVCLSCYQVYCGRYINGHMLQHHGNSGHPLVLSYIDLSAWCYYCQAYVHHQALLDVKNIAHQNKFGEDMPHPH
In words: HDAC6 enzyme inhibitory assay (HDAC-Glo I/II Assay kit). The class given is biochemical. The note with it: 1 μM test compound; for inhibition at 1 µM: read-out: HDAC6 inhibitory rate (%) (1 μM). The gist of the method:
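Luminescent HDAC-Glo I/II read-out after 20 min room-temperature reaction with substrate-developer, following a 60 min room-temperature enzyme–compound preincubation. Enzymes: full-length HDAC1 or HDAC6 from Sf-9 cells, GST-purified; buffer pH 7.5 Tris with NaCl, glutathione, 0.01% Tween-20. No-enzyme wells defined 100% inhibition.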

T1 sequence (Q13547 whole entry): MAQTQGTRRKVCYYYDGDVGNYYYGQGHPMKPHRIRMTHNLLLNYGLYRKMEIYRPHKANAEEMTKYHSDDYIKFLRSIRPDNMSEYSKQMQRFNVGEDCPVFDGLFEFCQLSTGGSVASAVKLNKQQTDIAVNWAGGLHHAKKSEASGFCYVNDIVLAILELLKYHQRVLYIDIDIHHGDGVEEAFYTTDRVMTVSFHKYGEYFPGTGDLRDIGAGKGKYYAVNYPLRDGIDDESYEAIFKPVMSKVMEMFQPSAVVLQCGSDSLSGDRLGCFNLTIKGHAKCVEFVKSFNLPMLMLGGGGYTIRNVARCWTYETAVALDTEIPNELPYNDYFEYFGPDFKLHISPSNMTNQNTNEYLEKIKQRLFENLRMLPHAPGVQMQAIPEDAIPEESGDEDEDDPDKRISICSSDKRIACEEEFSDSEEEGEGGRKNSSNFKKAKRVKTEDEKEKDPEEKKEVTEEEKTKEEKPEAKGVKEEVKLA

Take `O=C(NCC1COCCN1C(=O)c1ccccc1)c1ccc(-c2noc(C(F)(F)F)n2)s1` (single isomer, unassigned) [Example 257, (R or S)-N-((4-benzoylmorpholin-3-yl)methyl)-5-(5-(trifluoromethyl)-1,2,4-oxadiazol-3-yl)thiophene-2-carboxamide]: the inhibition at 1 µM amounted to 23% at HDAC1 enzyme and 97% at HDAC6 enzyme.

On to `O=C(NCC1COCCN1C(=O)c1ccccc1)c1ccc(-c2noc(C(F)(F)F)n2)s1` (single isomer, unassigned) [Example 258, (R or S)-N-((4-benzoylmorpholin-3-yl)methyl)-5-(5-(trifluoromethyl)-1,2,4-oxadiazol-3-yl)thiophene-2-carboxamide], for which, on HDAC1 enzyme (1 µM), the “HDAC1 inhibitory rate (%) (1 μM)” value worked out at 31%. Besides, on HDAC6 enzyme (1 µM), the “HDAC6 inhibitory rate (%) (1 μM)” value is 96%.

Regarding `Cc1nc2ccccn2c1C(=O)N1CCOCC1CNC(=O)c1ccc(-c2noc(C(F)(F)F)n2)cc1` (stereo in doubt) [Example 92, N-(((3S)-4-((2-methylimidazo[1,2-a]pyridin-3-yl)carbonyl)morpholin-3-yl)methyl)-4-(5-(trifluoromethyl)-1,2,4-oxadiazol-3-yl)benzamide], the inhibition at 1 µM was 36% at HDAC1 enzyme and 97% at HDAC6 enzyme.

Take `Cn1nc2c(c1C(=O)N1CCOCC1CNC(=O)c1ccc(-c3noc(C(F)(F)F)n3)cc1)CCCC2` (stereo in doubt) [Example 93, N-(((3S)-4-((2-methyl-4,5,6,7-tetrahydro-2H-indazol-3-yl)carbonyl)morpholin-3-yl)methyl)-4-(5-(trifluoromethyl)-1,2,4-oxadiazol-3-yl)benzamide]: the inhibition at 1 µM on HDAC1 enzyme amounted to 21%; at HDAC6 enzyme it was 95%.

For `Cc1nocc1C(=O)N1CCOCC1CNC(=O)c1ccc(-c2noc(C(F)(F)F)n2)cc1` (stereo in doubt) [Example 94, N-(((3S)-4-((3-methyl-1,2-oxazol-4-yl)carbonyl)morpholin-3-yl)methyl)-4-(5-(trifluoromethyl)-1,2,4-oxadiazol-3-yl)benzamide], the values for the inhibition at 1 µM on HDAC1 enzyme and on HDAC6 enzyme were 30% and 99%, respectively.

In the case of `CC(C)(C(=O)N1CCOCC1CNC(=O)c1ccc(-c2noc(C(F)(F)F)n2)cc1)c1ccccc1` (stereo in doubt) [Example 95, N-(((3S)-4-(2-methyl-2-phenylpropanoyl)morpholin-3-yl)methyl)-4-(5-(trifluoromethyl)-1,2,4-oxadiazol-3-yl)benzamide], the figures for the inhibition at 1 µM at HDAC1 enzyme and at HDAC6 enzyme were 30% and 99%, respectively.

Take `O=C(NCC1COCCN1C(=O)C(F)(F)c1ccccc1)c1ccc(-c2noc(C(F)(F)F)n2)cc1` (stereo in doubt) [Example 96, N-(((3S)-4-(difluoro(phenyl)acetyl)morpholin-3-yl)methyl)-4-(5-(trifluoromethyl)-1,2,4-oxadiazol-3-yl)benzamide]: the inhibition at 1 µM on HDAC1 enzyme came to 40%; at HDAC6 enzyme it was 98%.

For the molecule `O=C(NCC1COCCN1C(=O)C12CC3CC(CC(C3)C1)C2)c1ccc(-c2noc(C(F)(F)F)n2)cc1` (stereo in doubt) [Example 97, N-(((3S)-4-(adamantan-1-ylcarbonyl)morpholin-3-yl)methyl)-4-(5-(trifluoromethyl)-1,2,4-oxadiazol-3-yl)benzamide], the inhibition at 1 µM at HDAC1 enzyme came out at 16%; at HDAC6 enzyme, 96%.

With `CN(C(=O)N1CCOCC1CNC(=O)c1ccc(-c2noc(C(F)(F)F)n2)cc1)c1ccccc1` (stereo in doubt) [Example 98, (3S)-N-methyl-N-phenyl-3-(((4-(5-(trifluoromethyl)-1,2,4-oxadiazol-3-yl)benzoyl)amino)methyl)morpholine-4-carboxamide], the inhibition at 1 µM at HDAC1 enzyme turned out to be 15%; at HDAC6 enzyme, 98%.

As to `O=C(NCC1COCCN1C(=O)N1CCOCC1)c1ccc(-c2noc(C(F)(F)F)n2)cc1` (stereo in doubt) [Example 99, N-(((3S)-4-(morpholin-4-ylcarbonyl)morpholin-3-yl)methyl)-4-(5-(trifluoromethyl)-1,2,4-oxadiazol-3-yl)benzamide], the inhibition at 1 µM at HDAC1 enzyme came to 9%; on HDAC6 enzyme it was 99%.

For the molecule `O=C(NCC1COCCN1C(=O)N1CCCC1)c1ccc(-c2noc(C(F)(F)F)n2)cc1` (stereo in doubt) [Example 100, N-(((3S)-4-(pyrrolidin-1-ylcarbonyl)morpholin-3-yl)methyl)-4-(5-(trifluoromethyl)-1,2,4-oxadiazol-3-yl)benzamide], the figures for the inhibition at 1 µM at HDAC1 enzyme and at HDAC6 enzyme were 6% and 97%, respectively.

Turning to `O=C(NCC1COCCN1C(=O)Cc1cccs1)c1ccc(-c2noc(C(F)(F)F)n2)s1` (centres unmarked) [Example 245, N-((4-(2-thienylacetyl)morpholin-3-yl)methyl)-5-(5-(trifluoromethyl)-1,2,4-oxadiazol-3-yl)thiophene-2-carboxamide], the inhibition at 1 µM on HDAC6 enzyme came to 95%.

For `O=C(NCC1COCCN1C(=O)C1(c2ccccc2)CCCCC1)c1ccc(-c2noc(C(F)(F)F)n2)s1` (centres unmarked) [Example 249, N-((4-((1-phenylcyclohexyl)carbonyl)morpholin-3-yl)methyl)-5-(5-(trifluoromethyl)-1,2,4-oxadiazol-3-yl)thiophene-2-carboxamide], the inhibition at 1 µM on HDAC6 enzyme was 83%.

As for `O=C(NCC1COCCN1C(=O)CCc1ccccc1)c1ccc(-c2noc(C(F)(F)F)n2)s1` (centres unmarked) [Example 250, N-((4-(3-phenylpropanoyl)morpholin-3-yl)methyl)-5-(5-(trifluoromethyl)-1,2,4-oxadiazol-3-yl)thiophene-2-carboxamide], the inhibition at 1 µM at HDAC6 enzyme was 98%.

For the molecule `O=C(NCC1COCCN1C(=O)c1cccc2c1OCC2)c1ccc(-c2noc(C(F)(F)F)n2)s1` (centres unmarked) [Example 252, N-((4-(2,3-dihydro-1-benzofuran-7-ylcarbonyl)morpholin-3-yl)methyl)-5-(5-(trifluoromethyl)-1,2,4-oxadiazol-3-yl)thiophene-2-carboxamide], at HDAC6 enzyme, the inhibition at 1 µM turned out to be 91%.

Turning to `O=C(NCC1COCCN1C(=O)C1CC1)c1ccc(-c2noc(C(F)(F)F)n2)s1` (centres unmarked) [Example 253, N-((4-(cyclopropylcarbonyl)morpholin-3-yl)methyl)-5-(5-(trifluoromethyl)-1,2,4-oxadiazol-3-yl)thiophene-2-carboxamide], the inhibition at 1 µM at HDAC6 enzyme stood at 97%.

Take `O=C(NCC1COCCN1C(=O)C1CCOCC1)c1ccc(-c2noc(C(F)(F)F)n2)s1` (centres unmarked) [Example 255, N-((4-(tetrahydro-2H-pyran-4-ylcarbonyl)morpholin-3-yl)methyl)-5-(5-(trifluoromethyl)-1,2,4-oxadiazol-3-yl)thiophene-2-carboxamide]: on HDAC6 enzyme, the inhibition at 1 µM was 93%.

As to `O=C(NCC1COCCN1C(=O)c1ccccc1)c1cc(-c2noc(C(F)(F)F)n2)cs1` (centres unmarked) [Example 267, N-((4-benzoylmorpholin-3-yl)methyl)-4-(5-(trifluoromethyl)-1,2,4-oxadiazol-3-yl)thiophene-2-carboxamide], on HDAC6 enzyme, the inhibition at 1 µM stood at 52%.
